From US20230322767A1, “ARYL SUBSTITUTED PYRROLO-PYRIDINONES AND THERAPEUTIC USES THEREOF” (Bayer Aktiengesellschaft, priority 2020, published 2023)
Read-outs that look alike come from different tables or passages of the source.

Experiments:
Assay type in all cases: biochemical
[1] = molecular target: CSNK1A1 (Homo sapiens (Human), UniProt P48729); assay: CSNK1A1 Assay 2 (ADP-Glo, 1 μM ATP); conditions: median, read-out: CSNK1A1 Assay 2 IC50 [mol/l] (median)
In short: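 Enzyme (~0.0375 ng/μL) preincubated 15 min at 22° C with compound in HEPES pH 7.5 buffer, then reacted with 1 μM ATP and biotin-Ahx-KRRRAL-pS-VASLPGL peptide. ADP product measured by ADP-Glo luminescence after 1 h ATP depletion and 1 h detection at 22° C.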

[2] = molecular target: CSNK1D (Homo sapiens (Human), UniProt P48730); assay: CSNK1D Assay (ADP-Glo, 1 μM ATP); conditions: median, read-out: CSNK1D IC50 [mol/l] (median)
In short: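 Enzyme preincubated with compound 15 min at 22° C in 50 mM HEPES pH 7.5 buffer with 10 mM MgCl2, 1 mM DTT; kinase reaction run at 1 μM ATP with biotinylated peptide substrate. ADP formed was detected by ADP-Glo luminescence as the measure of activity.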

[3] = molecular target: wild-type Epidermal Growth Factor Receptor (EGFR) (Homo sapiens (Human), UniProt P00533); assay: WT-EGFR Kinase Assay (TR-FRET, 2 mM ATP)
In short: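 GST-tagged human EGFR (R669–A1210, Sf9-expressed) preincubated 15 min at 22° C with compound in pH 7.0 Hepes/MgCl2 buffer, then reacted at 2 mM ATP with a biotinylated peptide substrate. Phosphorylation detected by TR-FRET (streptavidin-XL665, Tb-cryptate anti-phosphotyrosine) as the 665/620 nm emission ratio.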

[4] = EGFR Wildtyp 2 mM ATP IC50 [mol/l] (median), median or individual measurements
[5] = read-out: EGFR Wildtyp 2 mM ATP IC50 [mol/l] (median), median or individual measurements

Sequence of wild-type Epidermal Growth Factor Receptor (EGFR) (P00533 669-1210): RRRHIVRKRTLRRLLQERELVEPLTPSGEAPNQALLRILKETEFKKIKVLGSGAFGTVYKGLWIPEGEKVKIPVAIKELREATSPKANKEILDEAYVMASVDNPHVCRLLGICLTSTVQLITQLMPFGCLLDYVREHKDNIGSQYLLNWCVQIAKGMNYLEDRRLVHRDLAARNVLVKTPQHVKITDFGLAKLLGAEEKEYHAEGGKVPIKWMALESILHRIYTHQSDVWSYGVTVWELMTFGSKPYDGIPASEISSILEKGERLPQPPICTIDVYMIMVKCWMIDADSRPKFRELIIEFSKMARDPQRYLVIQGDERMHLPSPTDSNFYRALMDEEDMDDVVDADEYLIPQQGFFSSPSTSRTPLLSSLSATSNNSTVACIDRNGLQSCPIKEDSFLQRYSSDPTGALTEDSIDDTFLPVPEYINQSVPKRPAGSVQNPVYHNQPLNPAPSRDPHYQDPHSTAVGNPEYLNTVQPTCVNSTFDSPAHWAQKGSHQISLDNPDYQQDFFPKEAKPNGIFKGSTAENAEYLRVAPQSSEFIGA
Sequence of CSNK1A1 (P48729 whole entry): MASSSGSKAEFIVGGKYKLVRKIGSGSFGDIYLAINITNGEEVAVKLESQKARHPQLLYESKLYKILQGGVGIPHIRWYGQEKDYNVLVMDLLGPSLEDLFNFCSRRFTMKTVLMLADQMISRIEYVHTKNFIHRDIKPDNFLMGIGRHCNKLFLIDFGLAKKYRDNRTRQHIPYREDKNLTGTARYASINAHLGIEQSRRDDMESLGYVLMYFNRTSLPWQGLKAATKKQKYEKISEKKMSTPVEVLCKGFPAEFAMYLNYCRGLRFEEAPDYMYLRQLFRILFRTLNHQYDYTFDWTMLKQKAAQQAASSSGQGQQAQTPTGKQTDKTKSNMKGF
Sequence of CSNK1D (P48730 whole entry): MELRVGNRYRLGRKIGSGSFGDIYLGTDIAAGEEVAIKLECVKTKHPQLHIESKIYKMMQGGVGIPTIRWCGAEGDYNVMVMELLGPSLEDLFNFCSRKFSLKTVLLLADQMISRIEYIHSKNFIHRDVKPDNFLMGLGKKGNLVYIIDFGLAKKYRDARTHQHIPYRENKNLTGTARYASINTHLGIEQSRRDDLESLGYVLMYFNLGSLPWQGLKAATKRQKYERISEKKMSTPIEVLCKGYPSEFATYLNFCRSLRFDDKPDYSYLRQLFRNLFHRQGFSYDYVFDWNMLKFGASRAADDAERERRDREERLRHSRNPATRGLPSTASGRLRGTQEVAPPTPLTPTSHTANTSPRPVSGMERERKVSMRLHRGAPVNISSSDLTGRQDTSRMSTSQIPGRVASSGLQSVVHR

## Cn1cc(CC(F)F)c2[nH]c(-c3ccnc(NC(=O)C(CC(F)F)c4ccc(F)cc4)c3)c(-c3ccccc3)c2c1=O (single isomer, unassigned) [Example 148, N-{4-[7-(2,2-difluoroethyl)-5-methyl-4-oxo-3-phenyl-4,5-dihydro-1H-pyrrolo[3,2-c]pyridin-2-yl]pyridin-2-yl}-4,4-difluoro-2-(4-fluorophenyl)butanamide]
[1]
  IC50: 12 nM
[2]
  IC50: 6.8 nM
[3]; [4]
  IC50: 8750 nM

## CC(C(=O)Nc1cc(-c2[nH]c3c(c2-c2ccc(F)cc2)C(=O)NC(C)(C)C3)ccn1)c1ccc(F)cc1 (single isomer, unassigned) [Example 96, 2-(4-fluorophenyl)-N-{4-[3-(4-fluorophenyl)-6,6-dimethyl-4-oxo-4,5,6,7-tetrahydro-1H-pyrrolo[3,2-c]pyridin-2-yl]pyridin-2-yl}propanamide]
[1]
  IC50: 1.3 nM
[2]
  IC50: 2 nM
[3]; [5]
  IC50: > 20000 nM

## O=C(Cc1ccc(F)cc1)Nc1cc(-c2[nH]c3ccn(C4CC4)c(=O)c3c2-c2ccccc2)ccn1 [Example 159, N-[4-(5-cyclopropyl-4-oxo-3-phenyl-4,5-dihydro-1H-pyrrolo[3,2-c]pyridin-2-yl)pyridin-2-yl]-2-(4-fluorophenyl)acetamide]
[1]
  IC50: 0.96 nM
[2]
  IC50: 1.6 nM
[3]; [5]
  IC50: > 20000 nM

## CC(C(=O)Nc1cc(-c2[nH]c3ccn(C)c(=O)c3c2-c2ccccc2C#N)ccn1)c1ccc(F)cc1 (racemic) [Example 123, N-{4-[3-(2-cyanophenyl)-5-methyl-4-oxo-4,5-dihydro-1H-pyrrolo[3,2-c]pyridin-2-yl]pyridin-2-yl}-2-(4-fluorophenyl)propanamide]
[1]
  IC50: 25 nM
[2]
  IC50: 22 nM
[3]; [4]
  IC50: > 20000 nM

## CC1(C)Cc2[nH]c(-c3ccnc(NC(=O)Cc4ccc(F)cc4)c3)c(-c3ccc(Cl)cc3)c2C(=O)N1 [Example 90, N-{4-[3-(4-chlorophenyl)-6,6-dimethyl-4-oxo-4,5,6,7-tetrahydro-1H-pyrrolo[3,2-c]pyridin-2-yl]pyridin-2-yl}-2-(4-fluorophenyl)acetamide]
[1]
  IC50: 3.2 nM
[2]
  IC50: 4.1 nM
[3]; [5]
  IC50: > 20000 nM

## COCCN(C)C(=O)c1ccc(CC(=O)Nc2cc(-c3[nH]c4ccn(C)c(=O)c4c3-c3ccc(F)cc3)ccn2)cc1 [Example 143, 4-[2-({4-[3-(4-fluorophenyl)-5-methyl-4-oxo-4,5-dihydro-1H-pyrrolo[3,2-c]pyridin-2-yl]pyridin-2-yl}amino)-2-oxoethyl]-N-(2-methoxyethyl)-N-methylbenzamide]
[1]
  IC50: 4 nM
[2]
  IC50: 2.7 nM
[3]; [5]
  IC50: > 20000 nM

## Cn1ccc2[nH]c(-c3ccnc(NC(=O)C(CC(F)F)c4ccc(F)cc4)c3)c(-c3cccnc3)c2c1=O (racemic) [Example 118, 4,4-difluoro-2-(4-fluorophenyl)-N-{4-[5-methyl-4-oxo-3-(pyridin-3-yl)-4,5-dihydro-1H-pyrrolo[3,2-c]pyridin-2-yl]pyridin-2-yl}butanamide]
[1]
  IC50: 8.6 nM
[2]
  IC50: 12 nM
[3]; [4]
  IC50: > 20000 nM

## COCCNC(=O)c1ccc(CC(=O)Nc2cc(-c3[nH]c4c(c3-c3ccc(F)cc3)C(=O)N(C)CC4)ccn2)cc1 [Example 140, 4-[2-({4-[3-(4-fluorophenyl)-5-methyl-4-oxo-4,5,6,7-tetrahydro-1H-pyrrolo[3,2-c]pyridin-2-yl]pyridin-2-yl}amino)-2-oxoethyl]-N-(2-methoxyethyl)benzamide]
[1]
  IC50: 1.6 nM
[2]
  IC50: 1.8 nM
[3]; [5]
  IC50: > 20000 nM

## CC(C(=O)Nc1cc(-c2[nH]c3c(c2-c2cccnc2)C(=O)NC(C)(C)C3)ccn1)c1ccc(F)cc1 (single isomer, unassigned) [Example 98, N-{4-[6,6-dimethyl-4-oxo-3-(pyridin-3-yl)-4,5,6,7-tetrahydro-1H-pyrrolo[3,2-c]pyridin-2-yl]pyridin-2-yl}-2-(4-fluorophenyl)propanamide]
[1]
  IC50: 71 nM
[2]
  IC50: 19 nM
[3]; [4]
  IC50: > 20000 nM

## O=C(Nc1cc(-c2[nH]c3ccn(C4CC4)c(=O)c3c2-c2ccc(F)cc2)ccn1)C(CC(F)F)c1ccc(F)cc1 (single isomer, unassigned; (+)) [Example 136, (+)-N-{4-[5-cyclopropyl-3-(4-fluorophenyl)-4-oxo-4,5-dihydro-1H-pyrrolo[3,2-c]pyridin-2-yl]pyridin-2-yl}-4,4-difluoro-2-(4-fluorophenyl)butanamide]
[1]
  IC50: 3.1 nM
[2]
  IC50: 2.1 nM
[3]; [5]
  IC50: > 20000 nM

## CN1CCc2[nH]c(-c3ccnc(NC(=O)C(CC(F)F)c4ccc(F)cc4)c3)c(-c3cscn3)c2C1=O (racemic) [Example 138, 4,4-difluoro-2-(4-fluorophenyl)-N-{4-[5-methyl-4-oxo-3-(1,3-thiazol-4-yl)-4,5,6,7-tetrahydro-1H-pyrrolo[3,2-c]pyridin-2-yl]pyridin-2-yl}butanamide]
[1]
  IC50: 8.9 nM
[2]
  IC50: 8.8 nM
[3]; [4]
  IC50: > 20000 nM

## CC(C(=O)Nc1cc(-c2[nH]c3c(c2-c2ccccc2)C(=O)N(C)CC3)ccn1)c1ccncc1 (stereo not shown) [Example 154, N-[4-(5-methyl-4-oxo-3-phenyl-4,5,6,7-tetrahydro-1H-pyrrolo[3,2-c]pyridin-2-yl)pyridin-2-yl]-2-(pyridin-4-yl)propanamide]
[1]
  IC50: 5.1 nM
[2]
  IC50: 6 nM
[3]; [4]
  IC50: > 20000 nM

## O=C(Nc1cc(-c2[nH]c3ccn(C4CC4)c(=O)c3c2-c2ccccc2)ccn1)C(CC(F)F)c1ccc(F)cc1 (racemic) [Example 137, N-[4-(5-cyclopropyl-4-oxo-3-phenyl-4,5-dihydro-1H-pyrrolo[3,2-c]pyridin-2-yl)pyridin-2-yl]-4,4-difluoro-2-(4-fluorophenyl)butanamide]
[1]
  IC50: 2.6 nM
[2]
  IC50: 3 nM
[3]; [4]
  IC50: > 20000 nM

## Cn1ccc2[nH]c(-c3ccnc(NC(=O)C(CC(F)F)c4ccc(F)cc4)c3)c(-c3ccc(F)cc3)c2c1=O (single isomer, unassigned; (+)) [Example 109, (+)-4,4-difluoro-2-(4-fluorophenyl)-N-{4-[3-(4-fluorophenyl)-5-methyl-4-oxo-4,5-dihydro-1H-pyrrolo[3,2-c]pyridin-2-yl]pyridin-2-yl}butanamide]
[1]
  IC50: 2.1 nM
[2]
  IC50: 3.7 nM
[3]; [4]
  IC50: 3850 nM

## COCCN(C)C(=O)c1ccc(CC(=O)Nc2cc(-c3[nH]c4c(c3-c3ccc(F)cc3)C(=O)N(C)CC4)ccn2)cc1 [Example 141, 4-[2-({4-[3-(4-fluorophenyl)-5-methyl-4-oxo-4,5,6,7-tetrahydro-1H-pyrrolo[3,2-c]pyridin-2-yl]pyridin-2-yl}amino)-2-oxoethyl]-N-(2-methoxyethyl)-N-methylbenzamide]
[1]
  IC50: 3.6 nM
[2]
  IC50: 2.7 nM
[3]; [5]
  IC50: > 20000 nM

## CC(C(=O)Nc1cc(-c2[nH]c3ccn(C)c(=O)c3c2-c2ccc(F)nc2)ccn1)c1ccc(F)cc1 (racemic) [Example 145, 2-(4-fluorophenyl)-N-{4-[3-(6-fluoropyridin-3-yl)-5-methyl-4-oxo-4,5-dihydro-1H-pyrrolo[3,2-c]pyridin-2-yl]pyridin-2-yl}propanamide]
[1]
  IC50: 9.7 nM
[2]
  IC50: 10 nM
[3]; [4]
  IC50: > 20000 nM

## CN1CCc2[nH]c(-c3ccnc(NC(=O)C(CC(F)F)c4ccc(F)cc4)c3)c(-c3ccc(F)cc3F)c2C1=O (single isomer, unassigned) [Example 68, N-{4-[3-(2,4-difluorophenyl)-5-methyl-4-oxo-4,5,6,7-tetrahydro-1H-pyrrolo[3,2-c]pyridin-2-yl]pyridin-2-yl}-4,4-difluoro-2-(4-fluorophenyl)butanamide]
[1]
  IC50: 4.1 nM
[2]
  IC50: 5.6 nM
[3]; [5]
  IC50: > 20000 nM

## CC(C(=O)Nc1cc(-c2[nH]c3ccn(C)c(=O)c3c2-c2ccco2)ccn1)c1ccc(F)cc1 (racemic) [Example 116, 2-(4-fluorophenyl)-N-{4-[3-(2-furyl)-5-methyl-4-oxo-4,5-dihydro-1H-pyrrolo[3,2-c]pyridin-2-yl]pyridin-2-yl}propanamide]
[1]
  IC50: 3.3 nM
[2]
  IC50: 7.8 nM
[3]; [4]
  IC50: > 5710 nM
[3]; [5]
  IC50: > 5710 nM

## O=C(Nc1cc(-c2[nH]c3ccn(C4CC4)c(=O)c3c2-c2ccc(F)cc2)ccn1)C(CC(F)F)c1ccc(F)cc1 (single isomer, unassigned; (-)) [Example 135, (−)-N-{4-[5-cyclopropyl-3-(4-fluorophenyl)-4-oxo-4,5-dihydro-1H-pyrrolo[3,2-c]pyridin-2-yl]pyridin-2-yl}-4,4-difluoro-2-(4-fluorophenyl)butanamide]
[1]
  IC50: 7.8 nM
[2]
  IC50: 5.4 nM
[3]; [4]
  IC50: > 20000 nM

## O=C(Cc1ccc(F)cc1)Nc1cc(-c2[nH]c3c(c2-c2ccccc2)C(=O)NCC3)ccn1 [Example 72, 2-(4-fluorophenyl)-N-[4-(4-oxo-3-phenyl-4,5,6,7-tetrahydro-1H-pyrrolo[3,2-c]pyridin-2-yl)pyridin-2-yl]acetamide]
[1]
  IC50: 0.66 nM
[2]
  IC50: 1.3 nM
[3]; [5]
  IC50: > 20000 nM

## CC(C(=O)Nc1cc(-c2[nH]c3c(c2-c2ccccc2)C(=O)N(C)CC3)ccn1)c1ccncc1 (single isomer, unassigned) [Example 155, N-[4-(5-methyl-4-oxo-3-phenyl-4,5,6,7-tetrahydro-1H-pyrrolo[3,2-c]pyridin-2-yl)pyridin-2-yl]-2-(pyridin-4-yl)propanamide]
[1]
  IC50: 1.3 nM
[2]
  IC50: 2 nM
[3]; [4]
  IC50: > 20000 nM
